# Reference: patent USRE47302E1 (ONYX THERAPEUTICS INC., priority 2013, dated 2019)
# What was measured:
# [1] = target: T1, proteasome subunit β5 (beta5) (Homo sapiens, UniProt P28074); assay: Proteasome active-site ELISA (ProCISE), beta5, MOLT-4 lysate; assay type: biochemical; conditions: MOLT4 lysate, human, 1 h continuous treatment, 25° C.
# T1 construct: Lysate from the human acute lymphoblastic leukemia cell line, MOLT-4; endogenous in cells; host or cells: MOLT-4
# Experimental: (§1) Test compounds were serially diluted in DMSO at 100× concentration, then diluted to 10× in aqueous hypotonic lysis buffer. Lysate from the human acute lymphoblastic leukemia cell line, MOLT-4, was treated for 1 hour at 25° C. with compound at a final 1× concentration. […] Following, lysate was denatured in guanidine hydrochloride, and subunits bound to probe were isolated with streptavidin-conjugated sepharose beads. Individual subunits (e.g., β5, LMP7, LMP2, MECL-1) were probed with subunit-specific primary antibodies, followed by HRP-conjugated secondary antibodies. A chemiluminescent substrate was used to generate signal associated with HRP binding, which was detected on a plate reader. Luminescent signal was normalized to protein content, then, percent activity calculated relative to DMSO-treated controls to generate IC50 curves.
# [2] = target: T2, immunoproteasome subunit LMP7 (Homo sapiens, UniProt P28062); assay: Proteasome active-site ELISA (ProCISE), LMP7, MOLT-4 lysate; assay type: biochemical; conditions: MOLT4 lysate, 1 h continuous treatment, 25° C.
# T2 construct: Lysate from the human acute lymphoblastic leukemia cell line, MOLT-4; endogenous in cells; host or cells: MOLT-4
# Experimental: as §1
# Solubility pH 7 = conditions: pH 7, aqueous buffer
Compound,IC50 [1],IC50 [2],solubility (Solubility pH 7)
"COc1ccc(C[C@H](NC(=O)[C@@H](C)NC(=O)[C@H]2CC[C@](C)(O)CC2)C(=O)N[C@@H](CC2=CCCC2)C(=O)[C@@]2(C)CO2)cc1 [Compound C-1087, (1r,4R)-N-((R)-1-(((S)-1-(((S)-3-(Cyclopent-1-en-1-yl)-1-((R)-2-methyloxiran-2-yl)-1-oxopropan-2-yl)amino)-3-(4-methoxyphenyl)-1-oxopropan-2-yl)amino)-1-oxopropan-2-yl)-4-hydroxy-4-methylcyclohexanecarboxamide]",1750 nM,59.9 nM,1130 µg/mL
"COc1ccc(C[C@H](NC(=O)[C@@H](C)NC(=O)[C@H]2CC[C@@](C)(O)CC2)C(=O)N[C@@H](CC2=CCCC2)C(=O)[C@@]2(C)CO2)cc1 [Compound C-1088, (1s,4S)-N-((R)-1-(((S)-1-(((S)-3-(cyclopent-1-en-1-yl)-1-((R)-2-methyloxiran-2-yl)-1-oxopropan-2-yl)amino)-3-(4-methoxyphenyl)-1-oxopropan-2-yl)amino)-1-oxopropan-2-yl)-4-hydroxy-4-methylcyclohexanecarboxamide]",2250 nM,132 nM,1410 µg/mL
"COc1ccc(C[C@H](NC(=O)[C@@H](C)NC(=O)[C@H]2CC[C@H](O)CC2)C(=O)N[C@@H](CC2=CCCCC2)C(=O)[C@@]2(C)CO2)cc1 [Compound C-1089, (1r,4R)-N-((R)-1-(((S)-1-(((S)-3-(cyclohex-1-en-1-yl)-1-((R)-2-methyloxiran-2-yl)-1-oxopropan-2-yl)amino)-3-(4-methoxyphenyl)-1-oxopropan-2-yl)amino)-1-oxopropan-2-yl)-4-hydroxycyclohexanecarboxamide]",8970 nM,57.6 nM,985 µg/mL
"COc1ccc(C[C@H](NC(=O)[C@@H](C)NC(=O)[C@H]2CC[C@H](O)CC2)C(=O)N[C@@H](CC2CCC2)C(=O)[C@@]2(C)CO2)cc1 [Compound C-1090, (1r,4R)-N-((R)-1-(((S)-1-(((S)-3-cyclobutyl-1-((R)-2-methyloxiran-2-yl)-1-oxopropan-2-yl)amino)-3-(4-methoxyphenyl)-1-oxopropan-2-yl)amino)-1-oxopropan-2-yl)-4-hydroxycyclohexanecarboxamide]",6630 nM,262 nM,979 µg/mL
"COc1ccc(C[C@H](NC(=O)[C@@H](CO)NC(=O)[C@H]2CC[C@H](O)CC2)C(=O)N[C@@H](CC2=CCCC2)C(=O)[C@@]2(C)CO2)cc1 [Compound C-1092, (1r,4R)-N-((R)-1-(((S)-1-(((S)-3-(cyclopent-1-en-1-yl)-1-((R)-2-methyloxiran-2-yl)-1-oxopropan-2-yl)amino)-3-(4-methoxyphenyl)-1-oxopropan-2-yl)amino)-3-hydroxy-1-oxopropan-2-yl)-4-hydroxycyclohexanecarboxamide]",2040 nM,29.3 nM,3070 µg/mL
"C[C@@H](NC(=O)[C@H]1CC[C@H](O)CC1)C(=O)N[C@@H](Cc1ccc(S(C)(=O)=O)cc1)C(=O)N[C@@H](CC1=CCCC1)C(=O)[C@@]1(C)CO1 [Compound C-1096, (1r,4R)-N-((R)-1-(((S)-1-(((S)-3-(cyclopent-1-en-1-yl)-1-((R)-2-methyloxiran-2-yl)-1-oxopropan-2-yl)amino)-3-(4-(methylsulfonyl)phenyl)-1-oxopropan-2-yl)amino)-1-oxopropan-2-yl)-4-hydroxycyclohexanecarboxamide]",868 nM,25.2 nM,917 µg/mL
"COc1ccc(C[C@H](NC(=O)[C@@H](C)NC(=O)[C@H]2CC[C@@H](O)CC2)C(=O)N[C@@H](CC2=CCCCC2)C(=O)[C@@]2(C)CO2)cc1 [Compound C-1097, (1s,4S)-N-((R)-1-(((S)-1-(((S)-3-(cyclohex-1-en-1-yl)-1-((R)-2-methyloxiran-2-yl)-1-oxopropan-2-yl)amino)-3-(4-methoxyphenyl)-1-oxopropan-2-yl)amino)-1-oxopropan-2-yl)-4-hydroxycyclohexanecarboxamide]",322 nM,21.6 nM,256 µg/mL
"C[C@@H](NC(=O)[C@H]1CC[C@H](O)CC1)C(=O)N[C@@H](Cc1ccc(C#N)cc1)C(=O)N[C@@H](CC1CCCC1)C(=O)[C@@]1(C)CO1 [Compound C-1103, (1r,4R)-N-((R)-1-(((S)-3-(4-cyanophenyl)-1-(((S)-3-cyclopentyl-1-((R)-2-methyloxiran-2-yl)-1-oxopropan-2-yl)amino)-1-oxopropan-2-yl)amino)-1-oxopropan-2-yl)-4-hydroxycyclohexanecarboxamide]",1960 nM,38.7 nM,2150 µg/mL
"COc1ccc(C[C@H](NC(=O)[C@H](CO)NC(=O)CN2CCOCC2)C(=O)N[C@@H](CC2=CCCCC2)C(=O)[C@@]2(C)CO2)cc1 [Compound C-1104, (S)-N-((S)-3-(cyclohex-1-en-1-yl)-1-((R)-2-methyloxiran-2-yl)-1-oxopropan-2-yl)-2-((S)-3-hydroxy-2-(2-morpholinoacetamido)propanamido)-3-(4-methoxyphenyl)propanamide]",2210 nM,72.4 nM,3270 µg/mL
"C[C@@H](NC(=O)[C@H]1CC[C@H](O)CC1)C(=O)N[C@@H](Cc1ccc2[nH]cnc2c1)C(=O)N[C@@H](CC1CCCC1)C(=O)[C@@]1(C)CO1 [Compound C-1105, (1r,4R)-N-((R)-1-(((S)-3-(1H-benzo[d]imidazol-5-yl)-1-(((S)-3-cyclopentyl-1-((R)-2-methyloxiran-2-yl)-1-oxopropan-2-yl)amino)-1-oxopropan-2-yl)amino)-1-oxopropan-2-yl)-4-hydroxycyclohexanecarboxamide]",3230 nM,49.5 nM,5690 µg/mL
"CC[C@H](NC(=O)CN1CCOCC1)C(=O)N[C@@H](Cc1ccc(OC)cc1)C(=O)N[C@@H](CC1CCCC1)C(=O)[C@@]1(C)CO1 [Compound C-1106, (S)-N-((S)-1-(((S)-3-cyclopentyl-1-((R)-2-methyloxiran-2-yl)-1-oxopropan-2-yl)amino)-3-(4-methoxyphenyl)-1-oxopropan-2-yl)-2-(2-morpholinoacetamido)butanamide]",284 nM,49.8 nM,960 µg/mL
"COc1ccc(C[C@H](NC(=O)[C@H](CO)NC(=O)CN2CCOCC2)C(=O)N[C@@H](CC2=CCCCC2)C(=O)[C@@]2(C)CO2)cc1O [Compound C-1109, (S)-N-((S)-3-(Cyclohex-1-en-1-yl)-1-((R)-2-methyloxiran-2-yl)-1-oxopropan-2-yl)-2-((S)-3-hydroxy-2-(2-morpholinoacetamido)propanamido)-3-(3-hydroxy-4-methoxyphenyl)propanamide]",4090 nM,181 nM,3820 µg/mL
"C[C@]1(C(=O)[C@H](CC2=CCCCC2)NC(=O)[C@H](Cc2ccc(S(C)(=O)=O)cc2)NC(=O)[C@H](CO)NC(=O)CN2CCOCC2)CO1 [Compound C-1110, (S)-N-((S)-3-(Cyclohex-1-en-1-yl)-1-((R)-2-methyloxiran-2-yl)-1-oxopropan-2-yl)-2-((S)-3-hydroxy-2-(2-morpholinoacetamido)propanamido)-3-(4-(methylsulfonyl)phenyl)propanamide]",4340 nM,217 nM,8380 µg/mL
